From patent publication US6297230A, “Cyanoaziridines for treating cancer” (priority 2000, dated 2001)
≈ marks a conversion by molar mass, not a printed value.

Experiments:
MCF-7/D40 cells = experiment: In vitro antitumor activity, MCF-7/D40; format: cell-based; settings: Homo sapiens, MCF7; MCF-7 breast, D40 (40-fold doxorubicin resistant)
Source text: (§1) 1) in vitro tumor cell viability assays using MTT and SRB dye reaction endpoints.
(§2) Sulforhodamine B (SRB) Assay for Adherent Tumor Cells
(§3) Sulforhodamine B (SRB) is a protein binding aminoxanthene dye with two sulfonic acid groups. (Lillie, R. D., H. J. Conn's Biological Stains, 9th Ed., Baltimore; Williams & Wilkins, 1977.) It quantitates whole cell protein content by the intensity of dye staining and relates this to the number of viable cells. […] The SRB assay is used for cells which normally adhere to surfaces (in this case plastic culture flasks or petri dishes) as part of their requirement for growth and division in vitro. The SRB assay is currently used by the National Cancer Institute in the anticancer drug screening program. (Skehan, et al., J Natl Cancer Inst 82:1107-1112, 1990; Rubinstein, et al., J Natl Cancer Inst 82:1113-1118, 1990.) Methodologic comparisons have shown that SRB results are linear for the number of tumor cells over a 100-fold range, and for protein content determined by a modified Lowry method or Standard Bradford (Bradford, M., Anal Biochem 72:248-254, 1976) methods. […] (Lillie, R. D., H. J. Conn's Biological Stains, 9th Ed., Baltimore; Williams & Wilkins, 1977.)
(§4) Cell cultures of 10^3 -10^7 cells growing in 96-well plastic microtiter plates are fixed with 50% trichloroacetic acid (TCA) for 30 minutes at 4° C. The cells are then stained with 0.4% (w/v) sulforhodamine B (SRB) dissolved in 1% acetic acid. Unbound dye is removed by 4 washes with 1% acetic acid, and protein-bound dye is extracted with 10 mM unbuffered Tris® base [tris(hydroxymethyl)aminomethane]. The optical density (OD) of this extracted solution is measured at […] in a microtiter plate ultraviolet absorbance detector. Cell viability is expressed as percent of control by dividing the optical densities and multiplying the result by 100.
(§5) Microculture Tetrazolium (MTT) Assay for Tumor Cells
(§6) Tumors are disaggregated into single cell suspensions using mechanical, hypoosmotic, and/or enzymatic (trypsin) methods. The cells are plated at a concentration of 3-5×10^4 per […] well into plastic 96-well plates. Growth medium containing 5-10% (vol/vol) heat-inactivated fetal bovine serum and penicillin/streptomycin (both […]) are added prior to incubation at 37° C. for 6 days. Afterwards the medium containing the drug is removed, the cells are centrifuged in fresh medium or phosphate-buffered saline (pH 7.4). A tetrazolium dye, […]-2,5-diphenyl tetrazolium (MTT), is then added. (Mossman, T., J Immunol 65:55-63, 1983.) This dye forms a colored formazan product upon activation by mitochondrial reductases in viable cells. Typically, the formazan product is solubilized in acid-propanol or DMSO. The intensity of the color is proportional to viable cell numbers and this is quantitated by spectrophotometric absorbance at 570 nm on a micro ELISA plate reader. The results are calibrated in % control absorbance from untreated tumor cells. (Alley, et al., Cancer Res 48:589-601, 1988.)
(§7) Table 3 gives the potencies of the new aziridine-1-carboxamides in a panel of human and murine tumor cells in culture. The tumor cell lines in this table are selected to represent a range of histological and growth phenotypes. Their characteristics are described below.
1.3 MCF-7/D40 and MCF-7/MITOX cell lines were developed by chronic exposure in vitro to increasing concentrations of the DNA-intercalating antitumor agents doxorubicin and mitoxantrone, respectively. […] The MCF-7/D40 cells express the cell membrane efflux pump, P-glycoprotein and are over 40-fold resistant to doxorubicin, mitoxantrone and the vinca alkaloids, vinblastine and vincristine.

tumor cell line panel = experiment: Panel of tumor cell lines in vitro; format: cell-based, human and murine; settings: all 3 MCF-7 breast lines and parental WiDr colon
Method: as §1, §2, §4, §6
Table 3 gives the potencies of the new aziridine-1-carboxamides in a panel of human and murine tumor cells in culture. […]

[1] = Body weight and lethality in SCID mice treated with AMP-404; format: in vivo
Method: The SCID mouse colony is maintained in a barrier facility with specially filtered air, autoclaved (sterilized) food and water and protective handling precautions (gloves, mask, gown) to prevent inadvertent infection. For tumor studies, human tumor cells are grown in vitro, harvested, counted and injected subcutaneously into the front flank area. Tumor cell innocula range from 10^6 -2×10^7 cells/mouse. Palpable tumors begin to develop after 1-3 weeks and sizes are determined by caliper measure of the widest perpendicular diameters. These dimensions are converted to mass using the formula: […]
Drug treatments are given by intravenous (IV) or intraperitoneal (IP) injection beginning 24 hours after tumor implantation (day 1). […] Drug therapy began 1 day later with AMP-404 dissolved in a water-miscible co-solvent system containing (per mL): benzyl alcohol 30 mg; polysorbate 80 mw, 80 mg; polyethylene glycol 300 mw, 650 mg; and q.s. to 1.0 mL in absolute ethanol. The daily dose was either 50 mg/kg or 100 mg/kg. Therapy was continued daily for […] and tumors were measured three times per week up to the 7 week ending period (two weeks after stopping drug therapy).

A-549 lung cancer cells = experiment: In vitro antitumor activity, A-549 lung; format: cell-based; settings: Homo sapiens, A549
Source text: as §1, §2, §3, §4, §5, §6, §7
3.0 A-549 Human Lung Cancer is an adenocarcinoma type of non-small cell lung cancer (NSCLC). It was established by Girard, et al. from a fresh tumor specimen obtained from a person with advanced lung cancer. (Girard, et al., J Natl Cancer Inst 51(5):1417-1423, 1973.) It has 5.6% plating efficiency (colony formation) on agar-coated plates, 66 modal chromosome number and grows rapidly when injected subcutaneously, forming acinar pattern tumors in immunodeficient mice. […]

WiDr colon cancer cells = experiment: In vitro antitumor activity, WiDr colon; format: cell-based; settings: Homo sapiens
Source text: as §1, §2, §3, §4, §5, §6, §7
2.1 WiDr: The adenocarcinoma cell line WiDr was originally isolated by Noguchi, et al. from a primary colon tumor specimen from a patient with advanced colon carcinoma. (Noguchi, et al, In Vitro 35(6):401-407, 1979.) The WiDr MITOX cell line was developed for mitoxantrone resistance by growth in serially elevated concentration of mitoxantrone. […] (Dalton, et al., Cancer Res 48:1882-1888, 1988.)

SMILES	IC50 (MCF-7/D40 cells) [µg/mL]	Tumor cell sensitivity in solid tumor lines (tumor cell line panel)	Weight loss ([1]; 50 mg/kg daily)	Mean body weight loss compared to control ([1]; 100 mg/kg daily)	Drug-induced lethality ([1]; mouse, in vivo)	IC50 (A-549 lung cancer cells) [µg/mL]	IC50 (WiDr colon cancer cells) [µg/mL]
CNC(=O)N1CC1C#N (centres unmarked) [AMP 403, 2-Cyanoaziridine-1-(N-methyl)carboxamide]	2.1 (≈ 16.8 µM)						
N#CC1CN1C(=O)Nc1ccccc1 (centres unmarked) [AMP 404, 2-Cyanoaziridine-1-(N-phenyl)carboxamide]	0.5 (≈ 2.67 µM)	tumor cell sensitivity increased	no apparent weight loss	15-20%	no drug-induced lethality	1.6 (≈ 8.55 µM)	0.9 (≈ 4.81 µM)
CCNC(=O)N1CC1C#N (centres unmarked) [AMP 406, 2-Cyanoaziridine-1-(N-ethyl)carboxamide]	2.8 (≈ 20.1 µM)					2.5 (≈ 18 µM)	5.6 (≈ 40.2 µM)
CC(C)(C)NC(=O)N1CC1C#N (centres unmarked) [AMP 410, 2-Cyanoaziridine-1-(N-t-butyl)carboxamide]	31.8 (≈ 190 µM)					33 (≈ 197 µM)	30 (≈ 179 µM)
N#CC1CN1C(=O)NCc1ccccc1 (centres unmarked) [AMP 412, 2-Cyanoaziridine-1-(N-benzyl)carboxamide]	1.2 (≈ 5.96 µM)					1.5 (≈ 7.45 µM)	1.1 (≈ 5.47 µM)
N#CC1CN1C(=O)NC1CCCCC1 (centres unmarked) [AMP 413, 2-Cyanoaziridine-1-(N-cyclohexyl)carboxamide]	1.7 (≈ 8.8 µM)					1.9 (≈ 9.83 µM)	0.4 (≈ 2.07 µM)
N#CC1CN1C(=O)Nc1ccc(F)cc1 (centres unmarked) [AMP 415, 2-Cyanoaziridine-1-[N-(4-fluorophenyl)]carboxamide]	0.5 (≈ 2.44 µM)	tumor cell sensitivity increased				1.3 (≈ 6.34 µM)	0.4 (≈ 1.95 µM)
N#CC1CN1C(=O)Nc1ccc(C(F)(F)F)cc1 (centres unmarked) [AMP 416, 2-Cyanoaziridine-1-[N-(4-trifluorophenyl)]carboxamide]	0.4 (≈ 1.57 µM)	tumor cell sensitivity increased				1.1 (≈ 4.31 µM)	0.3 (≈ 1.18 µM)
CCOC(=O)c1ccc(NC(=O)N2CC2C#N)cc1 (centres unmarked) [AMP 419, 2-Cyanoaziridine-1-[N-(4-ethoxycarbonylphenyl)]carboxamide]						1.5 (≈ 5.79 µM)	
